Data taken from ChEMBL document CHEMBL3272295, “Drugs derived from cannabinoids. 5. delta6a,10a-Tetrahydrocannabinol and heterocyclic analogs containing aromatic side chains” (J Med Chem, 1976).
Calls of active or inactive are those of the source.

Tests used:
Rattus norvegicus [1] = organism: Rattus norvegicus; test: animal or person; format: functional; details: Charles River, route oral
Description: Antidiarrheal activity in Charles River rat assessed as inhibition of castor oil-induced diarrhea by measuring protected animals at 0.5 mg/kg, po administered 1 hr prior to castor oil challenge measured after 1 hr relative to vehicle-treated control

Mus musculus [2] = test: Increase in footshock-induced fighting behavior in albino BALB/cJ mouse at 10 mg/kg, po after 30 to 90 mins; format: functional
Rattus norvegicus [3] = test: Antipsychotic activity in rat assessed as reduction of methamphetamine-induced hyperactivity at 5 mg/kg, po administered prior to methamphetamine challenge relative to vehicle-treated control; format: functional; design: scale not given: the % may be the effect or the level left
Rattus norvegicus [4] = test: Antianxiety activity in Long-Evans rat assessed as reduction in motor activity at 5 mg/kg, po after 2 hrs relative to vehicle-treated control; format: functional; design: scale not given: the % may be the effect or the level left
[5] = Acute toxicity in po dosed mouse; format: organism-based; details: in vivo
Mus musculus [6] = test: Analgesic activity in mouse assessed as inhibition of acetic acid-induced writhing at 16 mg/kg, po administered 30 mins prior to acetic acid challenge measured after 5 mins for 20 mins; format: functional
Rattus norvegicus [7] = test: Analgesic activity in Sprague-Dawley rat assessed as increase in pain threshold at 10 mg/kg, po after 15 to 90 mins by tail flick test; format: functional
Rattus norvegicus [8] = test: Antihypertensive activity in spontaneously hypertensive rat model assessed as reduction in blood pressure at 3 mg/kg, po after 3 hrs; format: functional; design: scale not given: the % may be the effect or the level left
Rattus norvegicus [9] = test: Antihypertensive activity in spontaneously hypertensive rat model assessed as reduction in blood pressure at 1 mg/kg, po after 3 hrs; format: functional; design: scale not given: the % may be the effect or the level left
Mus musculus [10] = test: Analgesic activity in po dosed mouse assessed as inhibition of acetic acid-induced writhing administered 30 mins prior to acetic acid challenge measured after 5 mins for 20 mins; format: functional
Rattus norvegicus [11] = test: Antianxiety activity in Long-Evans rat assessed as reduction in motor activity at 2 mg/kg, po after 2 hrs relative to vehicle-treated control; format: functional; design: scale not given: the % may be the effect or the level left
Mus musculus [12] = test: Antidepressant activity in po dosed mouse assessed as potentiation of DOPA-induced effect administered 4 hrs prior to DOPA challenge; format: functional; details: read-out: MED
Mus musculus [13] = test: Antianxiety activity in albino BALB/cJ mouse assessed as reduction in footshock-induced fighting behavior at 5 mg/kg, po after 30 to 90 mins; format: functional; design: scale not given: the % may be the effect or the level left
Rattus norvegicus [14] = test: Antihypertensive activity in spontaneously hypertensive rat model assessed as reduction in blood pressure at 3 mg/kg, po after 24 hrs; format: functional; design: scale not given: the % may be the effect or the level left
Rattus norvegicus [15] = test: Antihypertensive activity in spontaneously hypertensive rat model assessed as reduction in blood pressure at 1 mg/kg, po after 24 hrs; format: functional; design: scale not given: the % may be the effect or the level left
Rhesus monkey = test: Antianxiety activity in po dosed rhesus monkey assessed as antiagressive behavior measured every hour post dosing; format: functional; details: Macaca mulatta, read-out: MED
Rattus norvegicus [16] = test: Analgesic activity in Sprague-Dawley rat assessed as increase in pain threshold at 60 mg/kg, po after 15 to 90 mins by tail flick test; format: functional
Rattus norvegicus [17] = test: Antianxiety activity in Long-Evans rat assessed as reduction in motor activity at 40 mg/kg, po after 2 hrs relative to vehicle-treated control; format: functional; design: scale not given: the % may be the effect or the level left
Rattus norvegicus [18] = test: Antianxiety activity in Long-Evans rat assessed as reduction in motor activity at 1.25 mg/kg, po after 2 hrs relative to vehicle-treated control; format: functional; design: scale not given: the % may be the effect or the level left
Mus musculus [19] = test: Anticonvulsant activity in po dosed mouse assessed as dose required to protect 80% of animal measured after 1 to 4 hrs by audiogenic seizure test; format: functional
Rattus norvegicus [20] = test: Antipsychotic activity in rat assessed as reduction of methamphetamine-induced hyperactivity at 2.5 mg/kg, po administered prior to methamphetamine challenge relative to vehicle-treated control; format: functional; design: scale not given: the % may be the effect or the level left
Mus musculus [21] = test: Antianxiety activity in albino BALB/cJ mouse assessed as reduction in footshock-induced fighting behavior at 10 mg/kg, po after 30 to 90 mins; format: functional; design: scale not given: the % may be the effect or the level left

C#CCN1CCC2=C(C1)c1c(O)cc(C(C)CCCc3ccc(C)cc3)cc1OC2(C)C (centres undefined)
inhibition in vivo at 0.5 mg/kg (Rattus norvegicus [1]): 0% | Activity (Mus musculus [2]): 17% | Activity (Rattus norvegicus [3]): 46% | Activity (Rattus norvegicus [4]): 24% | LD50 [5]: ≥ 1000 mg/kg | inhibition in vivo at 16 mg/kg (Mus musculus [6]): 32%

CC1CCC2=C(C1)c1c(O)cc(C(C)C(C)CCc3ccncc3)cc1OC2(C)C (centres undefined)
Activity (Rattus norvegicus [7]): 58% | inhibition in vivo at 0.5 mg/kg (Rattus norvegicus [1]): 90% | Activity (Rattus norvegicus [8]): 19% | Activity (Rattus norvegicus [9]): 13% | ED50 (Mus musculus [10]): 4.7 mg/kg | Activity (Rattus norvegicus [3]): 13% | Activity (Rattus norvegicus [11]): 28% | Activity (Rattus norvegicus [4]): 42% | minimal effective dose (Mus musculus [12]): 20 mg/kg | LD50 [5]: ≥ 1000 mg/kg | Activity (Mus musculus [13]): 0% | Activity (Rattus norvegicus [14]): 7% | Activity (Rattus norvegicus [15]): 15%

CN1C(=O)CN=C(c2ccccc2)c2cc(Cl)ccc21 [DIAZEPAM]
ED50 (Mus musculus [10]): 4 mg/kg | Activity (Rattus norvegicus [4]): 15% | minimal effective dose (Rhesus monkey): 1 mg/kg | Activity (Mus musculus [13]): 95% | Activity (Rattus norvegicus [16]): 64% | Activity (Rattus norvegicus [17]): 60%

CCCCCC(C)C(C)c1cc(O)c2c(c1)OC(C)(C)C1CC=C(C)CC21 (centres undefined)
ED50 (Mus musculus [10]): 7.9 mg/kg | Activity (Rattus norvegicus [18]): 60% | Activity (Mus musculus [19]): inactive | Activity (Rattus norvegicus [3]): 81% | Activity (Rattus norvegicus [20]): 52% | minimal effective dose (Mus musculus [12]): 20 mg/kg | LD50 [5]: ≥ 1000 mg/kg | minimal effective dose (Rhesus monkey): 1 mg/kg | Activity (Mus musculus [21]): 89%
